Results reported in ChEMBL document CHEMBL1201862, “PubChem BioAssay data set” (2004).
The source made the active and inactive calls.

Legend:
[1] = biological target: Megakaryocyte-associated tyrosine-protein kinase (Homo sapiens, UniProt P42679); type: functional;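 further: affinity measured as one member of a kinase panel (Navigating the Kinome) against MATK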
[2] = biological target: Serine/threonine-protein kinase PLK3 (Homo sapiens, UniProt Q9H4B4); type: functional
[3] = biological target: Serine/threonine-protein kinase PLK4 (Homo sapiens, UniProt O00444); type: functional;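 further: PLK4 measured as one member of a kinome-wide kinase profiling panel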
[4] = biological target: Serine/threonine-protein kinase D2 (Homo sapiens, UniProt Q9BZL6); type: functional;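 further: measured against PRKD2 as one member of a kinome-wide kinase profiling panel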
[5] = biological target: Tyrosine-protein kinase receptor TYRO3 (Homo sapiens, UniProt Q06418); type: functional;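 further: TYRO3 value obtained as one member of a kinome-wide profiling panel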
[6] = biological target: Serine/threonine-protein kinase 17A (Homo sapiens, UniProt Q9UEE5); type: functional
SRSF protein kinase 1 = SRSF protein kinase 1 (Homo sapiens, UniProt Q96SB4); type: functional;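 further: measured as one member of a kinome-wide kinase profiling panel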
[7] = biological target: Mitogen-activated protein kinase 8 (Homo sapiens, UniProt P45983); type: functional;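 further: value comes from one member of a kinome-wide kinase profiling panel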
Aurora kinase A = Aurora kinase A (Homo sapiens, UniProt O14965); type: functional;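 further: value from the Navigating the Kinome kinase panel profiling, panel entry STK6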
[8] = biological target: Serine/threonine-protein kinase PAK 4 (Homo sapiens, UniProt O96013); type: functional;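 further: value obtained within a kinome profiling panel in which PAK4 was one of the panel members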
[9] = biological target: Calcium/calmodulin-dependent protein kinase type II subunit delta (Homo sapiens, UniProt Q13557); type: functional
[10] = biological target: Fibroblast growth factor receptor 1 (Homo sapiens, UniProt P11362); type: functional
[11] = biological target: Tyrosine-protein kinase JAK3 (Homo sapiens, UniProt P52333); type: functional
[12] = biological target: Tyrosine-protein kinase ITK/TSK (Homo sapiens, UniProt Q08881); type: functional;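 further: affinity for ITK measured as one member of a broad kinase panel profiling binding across the kinome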
[13] = biological target: Testis-specific serine/threonine-protein kinase 1 (Homo sapiens, UniProt Q9BXA7); type: functional
Insulin receptor = Insulin receptor (Homo sapiens, UniProt P06213); type: functional;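 further: insulin receptor kinase tested as one member of a kinome-wide kinase panel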
[14] = biological target: Mitogen-activated protein kinase kinase kinase kinase 2 (Homo sapiens, UniProt Q12851); type: functional;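 further: measured as one member of a kinome-wide kinase panel, with MAP4K2 as the panel entry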
[15] = biological target: Hepatocyte growth factor receptor (Homo sapiens, UniProt P08581); type: functional;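 further: kinase panel profiling across the kinome, with MET as the panel member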
[16] = biological target: Serine/threonine-protein kinase Chk1 (Homo sapiens, UniProt O14757); type: functional;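 further: measured as one member of a kinome-wide kinase profiling panel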
[17] = biological target: MAP kinase-interacting serine/threonine-protein kinase 2 (Homo sapiens, UniProt Q9HBH9); type: functional
[18] = biological target: Insulin-like growth factor 1 receptor (Homo sapiens, UniProt P08069); assay: Navigating the Kinome. Panel member name: IGF1R; type: functional
Misshapen-like kinase 1 = Misshapen-like kinase 1 (Homo sapiens, UniProt Q8N4C8); type: functional;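 further: kinome panel screen with MINK as the panel member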
[19] = biological target: Serine/threonine-protein kinase Nek4 (Homo sapiens, UniProt P51957); type: functional
[20] = biological target: Interleukin-1 receptor-associated kinase 4 (Homo sapiens, UniProt Q9NWZ3); type: functional
[21] = biological target: Homeodomain-interacting protein kinase 4 (Homo sapiens, UniProt Q8NE63); type: functional
[22] = biological target: Serine/threonine-protein kinase Nek2 (Homo sapiens, UniProt P51955); type: functional
[23] = biological target: Cyclin-dependent kinase 8 (Homo sapiens, UniProt P49336); assay: Navigating the Kinome. Panel member name: CDK8; type: functional
[24] = biological target: Cyclin-dependent kinase 7 (Homo sapiens, UniProt P50613); type: functional;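 further: value comes from a kinome-wide kinase profiling panel in which CDK7 is one member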
[25] = biological target: Cyclin-dependent kinase 9 (Homo sapiens, UniProt P50750); type: functional;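 further: value from the CDK9 entry of a kinome-spanning kinase panel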
[26] = biological target: cAMP-dependent protein kinase catalytic subunit alpha (Homo sapiens, UniProt P17612); type: functional
[27] = biological target: Lymphokine-activated killer T-cell-originated protein kinase (Homo sapiens, UniProt Q96KB5); type: functional;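 further: value comes from a kinase panel screen in which TOPK was one of the panel members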
[28] = biological target: Serine/threonine-protein kinase MRCK alpha (Homo sapiens, UniProt Q5VT25); type: functional
[29] = biological target: Serine/threonine-protein kinase 3 (Homo sapiens, UniProt Q13188); type: functional;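 further: measured as one member of a kinome-wide kinase panel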
[30] = luciferase reporter signal suppression in cells – H4 neuroglioma cells, luminescence, dose response (AID 1990); type: functional, cell-based
[31] = Luminescence Cell-Based Dose Response HTS to Identify Inhibitors of 5'UTR Stem-Loop Driven Prion Protein mRNA Translation in H4 Neuroglioblastoma Cells. [Related pubchem assays: 1827 (Project Summary), 1813 (Primary HTS)]; type: functional
[32] = biological target: T1, Heat shock factor protein 1 (Mus musculus, UniProt P38532); assay: decrease of HSF1-responsive luciferase luminescence – cell-based, NIH3T3, dose retest, confirmation (AID 2382); type: functional;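 further: NIH3T3 fibroblasts with HSF1-driven luciferase reporter stressed by proteasome inhibitor MG132; luminescence from HSF1-driven luciferase expression after 8 hours of MG132 stress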
T1 sequence (P38532 whole entry): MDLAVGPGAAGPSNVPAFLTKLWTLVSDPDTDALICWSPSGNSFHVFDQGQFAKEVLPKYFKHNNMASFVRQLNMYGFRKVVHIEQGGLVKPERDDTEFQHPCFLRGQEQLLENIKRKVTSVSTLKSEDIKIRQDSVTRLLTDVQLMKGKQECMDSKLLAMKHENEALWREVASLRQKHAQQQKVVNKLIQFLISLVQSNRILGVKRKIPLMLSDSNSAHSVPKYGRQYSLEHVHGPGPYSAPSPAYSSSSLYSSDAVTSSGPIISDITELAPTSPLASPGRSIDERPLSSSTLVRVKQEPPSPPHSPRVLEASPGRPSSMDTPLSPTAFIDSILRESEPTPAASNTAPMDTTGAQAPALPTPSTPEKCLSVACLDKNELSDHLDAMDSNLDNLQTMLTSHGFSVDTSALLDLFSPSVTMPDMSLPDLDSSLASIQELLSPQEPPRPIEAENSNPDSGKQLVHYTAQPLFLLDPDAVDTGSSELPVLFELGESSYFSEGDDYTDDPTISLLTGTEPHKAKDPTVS

Vero = assay: viability of Vero cells under compound – cytotoxicity control for flavivirus capping enzyme inhibitors (AID 588742); type: functional; details: Chlorocebus sabaeus
HEK293 = assay: EBV LMP1 TES2 canonical NF-kB signalling blockers – cell-based, HEK293, luciferase, cherry-pick, dose response (AID 588343); type: functional; details: Homo sapiens
A-375 = assay: MITF: Counter assay: A375 proliferation Measured in Cell-Based System Using Plate Reader - 2084-03_Inhibitor_Dose_DryPowder_Activity. [Related pubchem assays (depositor defined):AID488944]; type: functional; details: Homo sapiens

Sequence of Serine/threonine-protein kinase MRCK alpha (Q5VT25 whole entry): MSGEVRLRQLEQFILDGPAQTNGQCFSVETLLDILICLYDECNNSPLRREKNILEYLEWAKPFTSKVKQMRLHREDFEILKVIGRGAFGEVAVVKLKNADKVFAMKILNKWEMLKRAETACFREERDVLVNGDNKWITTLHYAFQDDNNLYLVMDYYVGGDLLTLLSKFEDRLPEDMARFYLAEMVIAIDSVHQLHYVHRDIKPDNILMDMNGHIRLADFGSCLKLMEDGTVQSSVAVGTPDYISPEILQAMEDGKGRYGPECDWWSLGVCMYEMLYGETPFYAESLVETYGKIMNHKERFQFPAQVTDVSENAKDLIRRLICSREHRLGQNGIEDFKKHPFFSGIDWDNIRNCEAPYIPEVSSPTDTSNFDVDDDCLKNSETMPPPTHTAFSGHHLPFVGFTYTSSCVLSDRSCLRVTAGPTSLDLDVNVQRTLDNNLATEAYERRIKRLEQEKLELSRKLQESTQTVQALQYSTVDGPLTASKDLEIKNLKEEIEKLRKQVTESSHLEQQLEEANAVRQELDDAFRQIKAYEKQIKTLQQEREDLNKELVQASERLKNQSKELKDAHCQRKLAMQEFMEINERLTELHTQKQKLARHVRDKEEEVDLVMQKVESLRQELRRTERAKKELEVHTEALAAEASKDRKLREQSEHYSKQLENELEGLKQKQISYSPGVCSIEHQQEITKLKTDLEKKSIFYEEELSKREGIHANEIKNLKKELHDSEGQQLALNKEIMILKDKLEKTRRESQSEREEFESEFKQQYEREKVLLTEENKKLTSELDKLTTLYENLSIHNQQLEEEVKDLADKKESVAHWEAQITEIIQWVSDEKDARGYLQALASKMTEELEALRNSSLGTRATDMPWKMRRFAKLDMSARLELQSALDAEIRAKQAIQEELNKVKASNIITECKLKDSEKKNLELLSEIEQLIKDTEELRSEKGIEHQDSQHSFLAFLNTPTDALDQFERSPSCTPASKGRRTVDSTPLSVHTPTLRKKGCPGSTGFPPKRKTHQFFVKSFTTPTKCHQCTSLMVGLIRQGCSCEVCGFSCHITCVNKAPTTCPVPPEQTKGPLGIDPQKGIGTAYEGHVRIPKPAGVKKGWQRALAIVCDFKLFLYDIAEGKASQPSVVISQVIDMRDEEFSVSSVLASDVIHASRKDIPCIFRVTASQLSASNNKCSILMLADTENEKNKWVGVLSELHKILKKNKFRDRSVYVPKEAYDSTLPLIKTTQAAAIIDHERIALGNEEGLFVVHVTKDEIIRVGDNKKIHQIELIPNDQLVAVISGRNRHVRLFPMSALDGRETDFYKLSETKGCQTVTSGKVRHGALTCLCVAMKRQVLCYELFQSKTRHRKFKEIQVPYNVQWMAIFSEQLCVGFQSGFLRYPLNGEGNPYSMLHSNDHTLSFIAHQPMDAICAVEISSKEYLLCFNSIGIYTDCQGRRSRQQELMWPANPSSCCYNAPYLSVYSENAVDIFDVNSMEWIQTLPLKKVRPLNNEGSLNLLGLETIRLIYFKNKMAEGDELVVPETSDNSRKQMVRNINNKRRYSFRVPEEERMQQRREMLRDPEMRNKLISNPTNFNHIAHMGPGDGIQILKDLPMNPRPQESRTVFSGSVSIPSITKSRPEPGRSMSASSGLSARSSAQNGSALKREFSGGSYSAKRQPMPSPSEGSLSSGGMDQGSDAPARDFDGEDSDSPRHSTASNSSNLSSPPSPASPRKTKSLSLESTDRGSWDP
Sequence of Tyrosine-protein kinase ITK/TSK (Q08881 whole entry): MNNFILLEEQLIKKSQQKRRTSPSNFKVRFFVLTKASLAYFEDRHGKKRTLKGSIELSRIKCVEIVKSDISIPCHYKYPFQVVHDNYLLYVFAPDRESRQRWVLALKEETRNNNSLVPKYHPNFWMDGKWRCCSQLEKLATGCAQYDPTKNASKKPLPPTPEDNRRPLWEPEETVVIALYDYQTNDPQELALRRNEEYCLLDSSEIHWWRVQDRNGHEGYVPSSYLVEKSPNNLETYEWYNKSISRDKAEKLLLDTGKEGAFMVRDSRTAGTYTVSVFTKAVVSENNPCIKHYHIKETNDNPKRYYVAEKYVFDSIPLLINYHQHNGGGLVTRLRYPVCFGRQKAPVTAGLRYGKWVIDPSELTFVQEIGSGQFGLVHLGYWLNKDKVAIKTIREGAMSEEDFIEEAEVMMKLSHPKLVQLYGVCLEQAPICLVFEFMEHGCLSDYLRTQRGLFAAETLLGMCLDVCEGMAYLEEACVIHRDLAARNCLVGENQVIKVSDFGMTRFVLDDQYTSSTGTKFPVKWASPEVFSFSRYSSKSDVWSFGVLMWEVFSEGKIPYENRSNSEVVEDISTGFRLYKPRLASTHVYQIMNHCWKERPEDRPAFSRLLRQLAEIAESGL
Sequence of Testis-specific serine/threonine-protein kinase 1 (Q9BXA7 whole entry): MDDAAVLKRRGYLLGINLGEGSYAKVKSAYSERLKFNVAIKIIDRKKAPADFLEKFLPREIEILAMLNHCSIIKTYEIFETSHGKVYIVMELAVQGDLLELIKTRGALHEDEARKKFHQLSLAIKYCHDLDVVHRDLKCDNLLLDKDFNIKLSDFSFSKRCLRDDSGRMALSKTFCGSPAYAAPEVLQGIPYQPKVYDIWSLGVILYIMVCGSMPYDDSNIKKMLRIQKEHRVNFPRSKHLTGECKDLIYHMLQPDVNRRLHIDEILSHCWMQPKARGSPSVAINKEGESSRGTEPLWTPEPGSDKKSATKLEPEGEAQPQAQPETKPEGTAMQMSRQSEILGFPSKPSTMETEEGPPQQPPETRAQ
Sequence of Tyrosine-protein kinase receptor TYRO3 (Q06418 whole entry): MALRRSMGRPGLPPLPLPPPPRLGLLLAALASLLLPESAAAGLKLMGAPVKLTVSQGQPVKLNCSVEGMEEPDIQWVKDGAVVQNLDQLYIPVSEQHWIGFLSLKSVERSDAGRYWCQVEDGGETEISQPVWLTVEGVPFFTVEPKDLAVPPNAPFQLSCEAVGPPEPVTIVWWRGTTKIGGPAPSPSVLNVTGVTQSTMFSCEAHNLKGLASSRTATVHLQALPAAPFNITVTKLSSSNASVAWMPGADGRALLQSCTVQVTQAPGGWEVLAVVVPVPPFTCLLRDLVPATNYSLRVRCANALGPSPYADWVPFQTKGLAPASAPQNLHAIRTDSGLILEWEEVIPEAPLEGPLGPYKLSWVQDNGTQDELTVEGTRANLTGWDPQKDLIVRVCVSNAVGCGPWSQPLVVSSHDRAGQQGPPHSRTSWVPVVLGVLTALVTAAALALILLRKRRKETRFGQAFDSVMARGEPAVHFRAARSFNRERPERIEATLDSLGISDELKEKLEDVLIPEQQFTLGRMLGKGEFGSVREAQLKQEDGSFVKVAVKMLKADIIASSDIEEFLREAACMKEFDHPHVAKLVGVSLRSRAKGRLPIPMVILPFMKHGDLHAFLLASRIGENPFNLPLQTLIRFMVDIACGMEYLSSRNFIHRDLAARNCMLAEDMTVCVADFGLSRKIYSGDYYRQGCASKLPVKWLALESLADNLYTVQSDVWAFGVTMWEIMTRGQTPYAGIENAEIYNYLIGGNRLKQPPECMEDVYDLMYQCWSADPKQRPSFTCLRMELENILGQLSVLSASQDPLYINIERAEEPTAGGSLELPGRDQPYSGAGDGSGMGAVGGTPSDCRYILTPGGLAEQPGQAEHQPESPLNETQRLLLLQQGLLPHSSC
Sequence of Serine/threonine-protein kinase Chk1 (O14757 whole entry): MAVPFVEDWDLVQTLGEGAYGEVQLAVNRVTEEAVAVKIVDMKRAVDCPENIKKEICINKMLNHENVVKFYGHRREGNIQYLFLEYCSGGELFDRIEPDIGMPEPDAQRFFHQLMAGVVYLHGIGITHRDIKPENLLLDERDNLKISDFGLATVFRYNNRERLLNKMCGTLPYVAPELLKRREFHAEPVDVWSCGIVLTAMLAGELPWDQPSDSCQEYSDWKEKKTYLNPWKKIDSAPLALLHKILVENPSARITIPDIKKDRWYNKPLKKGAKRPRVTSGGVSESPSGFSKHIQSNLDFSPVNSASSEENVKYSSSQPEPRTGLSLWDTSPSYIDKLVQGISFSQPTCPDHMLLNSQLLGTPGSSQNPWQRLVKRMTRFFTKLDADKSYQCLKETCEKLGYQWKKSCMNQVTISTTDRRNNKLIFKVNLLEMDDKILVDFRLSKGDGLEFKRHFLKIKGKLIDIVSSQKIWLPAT
Sequence of Mitogen-activated protein kinase kinase kinase kinase 2 (Q12851 whole entry): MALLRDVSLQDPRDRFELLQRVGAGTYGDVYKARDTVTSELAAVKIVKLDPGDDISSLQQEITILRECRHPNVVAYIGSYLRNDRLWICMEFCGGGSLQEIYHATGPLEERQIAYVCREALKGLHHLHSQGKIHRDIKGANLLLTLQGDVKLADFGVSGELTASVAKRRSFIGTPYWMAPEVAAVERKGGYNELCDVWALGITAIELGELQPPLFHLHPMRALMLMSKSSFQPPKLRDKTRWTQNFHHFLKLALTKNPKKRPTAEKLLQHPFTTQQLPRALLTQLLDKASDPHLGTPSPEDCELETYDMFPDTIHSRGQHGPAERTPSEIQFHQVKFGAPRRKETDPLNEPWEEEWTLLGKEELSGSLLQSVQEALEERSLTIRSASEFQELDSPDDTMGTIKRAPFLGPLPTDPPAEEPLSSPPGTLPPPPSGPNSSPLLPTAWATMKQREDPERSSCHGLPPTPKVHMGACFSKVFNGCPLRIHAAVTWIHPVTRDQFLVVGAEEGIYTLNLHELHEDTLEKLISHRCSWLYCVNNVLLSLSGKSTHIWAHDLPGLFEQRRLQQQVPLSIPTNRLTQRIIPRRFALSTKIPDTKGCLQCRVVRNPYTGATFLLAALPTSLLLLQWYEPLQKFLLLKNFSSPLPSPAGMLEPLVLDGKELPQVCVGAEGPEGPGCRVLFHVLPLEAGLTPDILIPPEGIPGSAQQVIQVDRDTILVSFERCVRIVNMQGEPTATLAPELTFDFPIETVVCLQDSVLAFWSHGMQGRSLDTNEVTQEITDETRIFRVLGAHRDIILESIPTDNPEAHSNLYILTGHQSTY

In the case of Clc1cc(-c2c[nH]c3ncccc23)nc(NC2CCCCC2)n1, the Ki [1] is reported as > 2 µM (inactive), the Ki [2] is reported as > 7.94 µM (inactive) and the Ki [3] is reported as > 3.98 µM (inactive). The Ki [4] was 200 nM (active), the Ki [5] was > 2.51 µM (inactive) and the Ki [6] was 1 µM (active). The Ki (SRSF protein kinase 1) was 794 nM (active), the Ki [7] was > 3.16 µM (inactive) and the Ki (Aurora kinase A) was > 1.58 µM (inactive). The Ki [8] was > 2 µM (inactive), the Ki [9] was > 1.26 µM (inactive) and the Ki [10] was > 3.98 µM (inactive). For the same compound, the Ki [11] was > 3.16 µM (inactive), the Ki [12] was 1.26 µM (active) and the Ki [13] was > 1.58 µM (inactive). The Ki (Insulin receptor) was 3.16 µM (active), the Ki [14] was > 1.26 µM (inactive) and the Ki [15] was > 3.16 µM (inactive). The Ki [16] was 3.98 µM (active), the Ki [17] was 79.4 nM (active) and the Ki [18] was > 2 µM (inactive). For the same compound, the Ki (Misshapen-like kinase 1) was 7.94 nM (active), the Ki [19] was > 6.31 µM (inactive) and the Ki [20] was 158 nM (active). For the same compound, the Ki [21] was 1.26 µM (active), the Ki [22] was > 10 µM (inactive) and the Ki [23] was 3.98 nM (active). The Ki [24] was > 6.31 µM (inactive), the Ki [25] was > 794 nM (inactive) and the Ki [26] was 251 nM (active). The Ki [27] was > 10 µM (inactive), the Ki [28] was 126 nM (active) and the Ki [29] was > 1.58 µM (inactive).
In the case of NS(=O)(=O)c1ccc(NC2=CC(=O)C(=O)c3ccccc32)cc1, the EC50 [30] is reported as > 120 µM (not active), the EC50 [31] is reported as 24.4 µM (active) and the EC50 [32] is reported as > 195 µM (not active). For the same compound, the CC50 (Vero) was 11.8 µM (active).
In the case of O=C(N/N=C/c1ccc(O)cc1O)c1ccc(CN2C(=O)c3cccc4cccc2c34)cc1, the AC50 (HEK293) is reported as 6.46 µM (active).
For CCC(=O)NC(c1ccccc1OC)c1ccc2cccnc2c1O (centres undefined), the AC50 (A-375) was 35 µM (active).
